Assay: Log water solubility of preservatives
Settings: logarithm base 10 of molar solubility at 25° C.; from experimental solubility or Chemsilico CS log WSo-3.0

| Structure (SMILES) | Log (water Solubility in mol/L) [mol/L] |
| --- | --- |
| C=CCCCCCCCCC(=O)O [Undecylenic Acid] | −3.15 |
| CCCCCCC(O)CO (stereo not shown) [caprylyl glycol] | −3.08 |
| CCOC(=O)c1ccc(O)cc1 [ethyl paraben] | −1.91 |
| OCCc1ccccc1 [phenethyl alcohol] | −0.83 |
| OCc1ccccc1 [benzyl Alcohol] | −0.47 |
| O=C(O)c1ccccc1O [Salicylic acid] | −1.41 |
| C/C=C/C=C/C(=O)O [sorbic acid] | −0.33 |
